Measured values from patent US11717528B2, “Methods and compositions relating to the treatment of fibrosis” (BROWN UNIVERSITY, priority 2017, dated 2023).
“Also recorded” adds a separate entry of the source.

What was measured:
[1] = tested on: fibrosis (collagen accumulation); assay: bleomycin-treated Hermansky-Pudlak syndrome mice; assay type: in vivo, HPS-1 null mice (pale ear mice); conditions: bleomycin IP 5 consecutive days, kasugamycin 50 mg/kg qod from day 12
Experimental: FIG. 12A depicts a schematic illustration of the experiemental procedure. Bleomycin was given IP for 5 consecutive days followed by kasugamycin at 50 mg/kg qod for 7 days starting on day 12. FIG. 12B depicts a graph of the effects on fibrosis (collagen accumulation).

[2] = tested on: bleomycin-induced pulmonary fibrosis; assay: bleomycin I.P. model of pulmonary fibrosis, kasugamycin I.P.; assay type: in vivo, C57 BL/6 mice; conditions: for pulmonary fibrosis / total lung collagen: bleomycin 25 Unit/kg daily for 6 days, kasugamycin 50 mg/Kg I.P. every other day, 7 doses, Sircol
Experimental: FIG. 2 depicts a schematic of experiments described herein, using a method reported by Inomata et al (Respiratory Research, 2014, 15:16) that was used for therapeutic efficacy of pirifenidone with minor modification. 8 Week old C57 BL/6 mice were used for the evaluation. Bleomycin (25 Unit/kg) was given daily for 6 days. Seven days after the last bleomycin challenge, Kasugamycin (50 mg/Kg) or PBS were delivered every other day via I.P. injection. The mice received a total of 7 doses of Kasugamycin. The mice were sacrificed a day after the last injection of Kasugamycin.
FIG. 3A depicts the results of a lung collagen assay by Sircol. FIG. 3B depicts results of RT-PCR assay of selected extracellular matrix genes on lung lysate *p<0.05, **p<0.01 by ANOVA evaluation, Bleo, bleomycin; KSM, kasugamycin.
The therapeutic window of kasugamycin was investigated using the method described in Inomata et al (Respiratory Research 2014 15:16) that was used to establish the therapeutic efficacy of pirifendidone, with minor modifications. Briefly, 8 week old C57 BL/6 mice were used for the evaluation. Bleomycin (25 Unit/kg) was given daily for 6 days. Seven days after the last bleomycin challenge, kasugamycin (50 mg/Kg) or PBS were delivered every other day via I.P. injection. The mice received a total of 7 doses of kasugamycin. The mice were sacrificed a day after the last injection of kasugamycin (FIG. 2).

[3] = tested on: TGFβ1-stimulated inflammation and fibrosis; assay: transgenic TGFβ1-stimulated inflammation and fibrosis; assay type: in vivo, TGFβ1 transgenic mice; conditions: for fibrosis: transgenic TGFβ1 stimulation (FIG. 10, 11)
Experimental: FIG. 10 depicts graphs of the effect of Kasugamycin on transgenic TGFβ1-stimulated inflammation and fibrosis
FIG. 11 depicts the effect of kasugamycin on TGFβ1-stimulated fibrosis. In this figure WT=wild type mice; TG=TGFβ1 transgenic mice.
(§1) The results were validated by measuring dose-response (FIG. 4). Assay conditions were 0.33 nM of recombinant Chit1, 1 μM of test compound, 4 μM of substrate, 30 min incubation at room temperature.

recombinant Chit1 = recombinant Chit1 (Homo sapiens, UniProt Q13231); assay: Chit1 inhibitor screen and dose-response validation; assay type: biochemical; conditions: for ability to inhibit Chit1 (chitotriosidase) activity: among aminoglycoside antibiotics (FIG. 1)
Experimental: FIG. 4 depicts dose-response validation of inhibitory activities of kasuagmycin on Chit1 activities
Chit1 is a biomarker and therapeutic target of SSc-ILD, as well as plahing a significant role in bleomycin- and IL-13-induced pulmonary fibrosis. In order to discover new therapeutic approaches for fibrotic diseases, we screened for inhibitors of Chit1, using pentoxifylline as a positive control. The results of the screen were expressed as a % of the inhibitory activity of 200 uM of pentoxifylline. This assay identified 51 compounds that have more than 45% of inhibition (compared to 200 μM pentoxifylline). One of the compounds so identified was kasugamycin.
as §1

[4] = tested on: bleomycin-induced pulmonary fibrosis; assay: bleomycin I.T. model of pulmonary fibrosis; assay type: in vivo, mice; conditions: bleomycin I.T. model (FIG. 9)
Experimental: FIG. 5 depicts schematic diagrams of in vivo validation of antifibrotic effect of Chit1 inhibitors using bleomycin models of pulmonary fibrosis
FIG. 9 depicts BAL cell recovery and total lung coallagen with and without Kasugamycin treatment (I.T. Model)
as §1

[5] = cited from earlier work
[6] = tested on: bleomycin-induced pulmonary fibrosis; assay: kasugamycin by gavage in the bleomycin IP model; assay type: in vivo, WT C57BL/6 mice; conditions: kasugamycin 50, 100 or 500 mg/kg by gavage everyday
Experimental: FIGS. 13A-13B depict the effect of kasugamycin when given by gavage in the bleomycin IP model. FIG. 13A depicts a schematic illustration of the experimental procedure. Pulmonary fibrosis was induced in WT C57BL/6 mice by injecting bleomycin 6 times intra-peritoneal (IP) injection (25 unit/kg) daily (day 1-6). Units/injection—100 uL of 6 U/mL bleomycin solution (0.6 unit/injection). Kasugamycin was then administered at 50 mg/kg, 100 mg/kg, or 500 mg/kg, gavage everyday. FIG. 13B depicts a graph of the effects on collagen count. The x-axis specifies the dose of kasugamcyin used.

Sequence of recombinant Chit1 (Q13231 22-466, species assumed): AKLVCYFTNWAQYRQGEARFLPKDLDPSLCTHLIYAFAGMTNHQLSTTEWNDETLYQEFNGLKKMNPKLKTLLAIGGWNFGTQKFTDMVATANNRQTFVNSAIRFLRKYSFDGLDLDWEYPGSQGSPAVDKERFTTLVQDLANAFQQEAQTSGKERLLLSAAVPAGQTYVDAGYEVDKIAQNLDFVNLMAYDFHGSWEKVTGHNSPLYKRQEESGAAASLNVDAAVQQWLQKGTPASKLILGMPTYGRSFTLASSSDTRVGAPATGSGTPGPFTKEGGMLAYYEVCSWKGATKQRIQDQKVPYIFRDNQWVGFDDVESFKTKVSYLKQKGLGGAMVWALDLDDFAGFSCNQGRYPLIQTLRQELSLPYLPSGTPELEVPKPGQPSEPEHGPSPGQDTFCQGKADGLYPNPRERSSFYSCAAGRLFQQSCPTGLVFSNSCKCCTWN

**Q.** Which “fibrosis (collagen accumulation)” value [1] does the source give for `C[C@H]1O[C@H](O[C@H]2[C@H](O)[C@@H](O)[C@@H](O)[C@H](O)[C@@H]2O)[C@@H](N)C[C@@H]1NC(=N)C(=O)O` [kasugamycin, 2-amino-2-[(2R,3S,5S,6R)-5-amino-2-methyl-6-[(2R,3S,5S,6S)-2,3,4,5,6-pentahydroxycyclohexyl]oxyoxan-3-yl]iminoacetic acid] here?
**A.** potent inhibitor of fibrosis

**Q.** And the “fibrosis (collagen accumulation)” value ([1]; listed as Kasugamycin)?
**A.** reduced fibrosis

**Q.** What about the “matrix gene expression (RT-PCR on lung lysate)” value ([2]; after bleomycin, kasugamycin 50 mg/Kg I.P.) of the same compound?
**A.** decreased

**Q.** What about the “pulmonary fibrosis / total lung collagen” value [2] of the same compound?
**A.** reduction of collagen; also recorded: potent inhibitor of fibrosis; also recorded: reduced pulmonary fibrosis

**Q.** What about the “pulmonary fibrosis / total lung collagen” value ([2]; listed as Kasugamycin) of the same compound?
**A.** decreased pulmonary fibrosis

**Q.** What about the lung histology ([2]; bleomycin I.P. model (FIG. 7)) of the same compound?
**A.** affect on histology

**Q.** What about the inflammation ([3]; transgenic TGFβ1 stimulation (FIG. 10)) of the same compound?
**A.** inhibited inflammation

**Q.** What about the fibrosis [3] of the same compound?
**A.** potent inhibitor of fibrosis

**Q.** What about the fibrosis ([3]; listed as Kasuagmyicn) of the same compound?
**A.** inhibited

**Q.** What about the “inhibition of Chit1, expressed as % of the inhibitory activity of 200 uM pentoxifylline” value (recombinant Chit1) of the same compound?
**A.** more than 45%

**Q.** What about the “ability to inhibit Chit1 (chitotriosidase) activity” value (shortened to “ability to inhibit Chit1”) (recombinant Chit1) of the same compound?
**A.** can inhibit Chit1

**Q.** What about the “ability to inhibit Chit1” value (recombinant Chit1; listed as Kasugamycin) of the same compound?
**A.** unique in its ability to inhibit chitotriosidase activity

**Q.** And the “ability to inhibit Chit1” value (recombinant Chit1; listed as kasugamcyin)?
**A.** unique amongst aminoglycosides in its ability to inhibit Chit 1

**Q.** What about the BAL cell recovery [4] of the same compound?
**A.** affected BAL cell recovery

**Q.** What about the “fibrosis / lung collagen” value [4] of the same compound?
**A.** reduced lung collagen; also recorded: potent inhibitor of fibrosis

**Q.** What about the water solubility [5] of the same compound?
**A.** water soluble

**Q.** And the “fibrosis (collagen count)” value [6]?
**A.** reduced fibrosis
